Our source for the Ki, IC50 and inhibition values is patent publication US6620828B2, “Thiazole compounds and pharmaceutical compositions for inhibiting protein kinases and methods for their use” (Agouron Pharmaceuticals, Inc., priority 1999, dated 2003).

In assay [1] the target is T1, phosphorylated VEGF-R2Δ50 (FLVK-P) (Homo sapiens, UniProt P35968, DEL940-989/E990V).
T1 construct: VEGF-R2Δ50 contains residues 806-939 and 990-1171; made in house; host or cells: baculovirus/insect cells
Put plainly: VEGF-R2 coupled spectrophotometric (FLVK-P) assay. The class given is biochemical. Particulars: for Ki: Table 1, spectrophotometric assay. Summed up:
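Baculovirus-expressed human VEGF-R2Δ50 (residues 806-939/990-1171, E990V) was autophosphorylated with 3 mM ATP, 40 mM MgCl2 for 2 h at 4° C. ADP formation was coupled via PK/LDH to NADH oxidation, read at 340 nm, with 5.1 mM poly(E4Y1), 1 mM ATP, 25 mM MgCl2, Hepes pH 7.5. Ki came from activity across compound concentrations.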

Assay [2] concerns human umbilical vein endothelial cells (HUVEC). The assay can be described thus: HUVEC proliferation assay. It counts as cell-based. Particulars: Homo sapiens, HUVEC. An outline of the steps: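 Exponentially growing HUVEC were serum-starved 24 h (F12K + 1% FBS), pre-treated 1 h with compound (0.1% DMSO final), then stimulated with 6 ng/ml VEGF. Proliferation was read 72 h later by MTT reduction (A595). IC50 came from seven 0.5-log concentrations in triplicate; screens gave % inhibition relative to VEGF-only and starved wells.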

Assay [3] has as its system lung cancer cells (line MV522). The assay can be described thus: Cancer cell proliferation (MV522) assay. It counts as cell-based. Particulars: MV522, Table 1. As for the experimental part:
Cancer Cell Proliferation (MV522) Assay
The protocol for assessing cellular proliferation in cancer cells is similar to that used for assessments in HUVEC cells. Two thousand lung cancer cells (line MV522, acquired from American Tissue Cultural Collection) were seeded in growth media (RPMI1640 medium supplemented with 2 mM glutamine and 10% FBS). Cells are allowed to attach for 1 day prior to addition of test agents and/or vehicles. Cells are treated simultaneously with the same test agents used in the HUVEC assay. Cellular proliferation is quantified by MTT dye reduction assay 72 hours after exposure to test agents. The total length of the assay is 4 days vs. 5 for HUVEC cells because MV522 cells are not exposed to starvation medium.

The target of assay [4] is T2, unphosphorylated VEGF-R2Δ50 (FLVK) (Homo sapiens, UniProt P35968, DEL940-989/E990V).
T2 construct: VEGF-R2Δ50 contains residues 806-939 and 990-1171; made in house; host or cells: baculovirus/insect cells
T2 sequence (P35968 with tags, fused parts or gaps DEL940-989/E990V limits assumed): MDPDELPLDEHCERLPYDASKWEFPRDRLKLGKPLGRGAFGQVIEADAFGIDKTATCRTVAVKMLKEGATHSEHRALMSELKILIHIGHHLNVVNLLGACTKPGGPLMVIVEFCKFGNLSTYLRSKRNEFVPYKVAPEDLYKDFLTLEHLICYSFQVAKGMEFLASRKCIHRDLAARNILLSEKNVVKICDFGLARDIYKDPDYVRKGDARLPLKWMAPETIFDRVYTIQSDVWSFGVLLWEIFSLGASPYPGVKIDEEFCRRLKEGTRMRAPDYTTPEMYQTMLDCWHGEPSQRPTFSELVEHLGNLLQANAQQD
Put plainly: VEGF-R2 coupled spectrophotometric assay, unphosphorylated enzyme (FLVK). It counts as biochemical. Particulars: for inhibition at 0.05 µM: at 50 nM. The source says: VEGF-R2 Construct for Assay: This construct determines the ability of a test compound to inhibit tyrosine kinase activity. A construct (VEGF-R2Δ50) of the cytosolic domain of human vascular endothelial growth factor receptor 2 (VEGF-R2) lacking the 50 central residues of the 68 residues of the kinase insert domain was expressed in a baculovirus/insect cell system. Of the 1356 residues of full-length VEGF-R2, VEGF-R2Δ50 contains residues 806-939 and 990-1171, and also one point mutation (E990V) within the kinase insert domain relative to wild-type VEGF-R2. Autophosphorylation of the purified construct was performed by incubation of the enzyme at a concentration of 4 μM in the presence of 3 mM ATP and 40 mM MgCl2 in 100 mM Hepes, pH 7.5, containing 5% glycerol and 5 mM DTT, at 4° C. for 2 h. […] See Parast et al., Biochemistry, 37, 16788-16801 (1998).
The production of ADP from ATP that accompanies phosphoryl transfer was coupled to oxidation of NADH using phosphoenolpyruvate (PEP) and a system having pyruvate kinase (PK) and lactic dehydrogenase (LDH). The oxidation of NADH was monitored by following the decrease of absorbance at 340 nm (e340=6.22 cm^−1 mM^−1) using a Beckman DU 650 spectrophotometer. Assay conditions for phosphorylated VEGF-R2Δ50 (indicated as FLVK-P in the tables below) were the following: 1 mM PEP; 250 μM NADH; 50 units of LDH/mL; 20 units of PK/mL; 5 mM DTT; 5.1 mM poly(E4Y1); 1 mM ATP; and 25 mM MgCl2 in 200 mM Hepes, pH 7.5. Assay conditions for unphosphorylated VEGF-R2Δ50 (indicated as FLVK in the tables) were the following: 1 mM PEP; 250 μM NADH; 50 units of LDH/mL; 20 units of PK/mL; 5 mM DTT; 20 mM poly(E4Y1); 3 mM ATP; and 60 mM MgCl2 and 2 mM MnCl2 in 200 mM Hepes, pH 7.5. Assays were initiated with 5 to 40 nM of enzyme. Ki values were determined by measuring enzyme activity in the presence of varying concentrations of test compounds. The data were analyzed using Enzyme Kinetic and Kaleidagraph software.

The mark [5] stands for this setting: Table 3, some entries 'Slow binder'.

T1 sequence (P35968 with tags, fused parts or gaps DEL940-989/E990V limits assumed): as above

The term Ki denotes a measure of affinity in units of concentration, obtained from inhibition or displacement. As usually defined, the IC50 is the concentration needed to halve the response being measured. Read a low IC50 as higher potency. Regarding `COc1cc(C(=O)Nc2cccc(-c3csc(-c4sc(Nc5cc(OC)c(OC)c(OC)c5)nc4N)n3)c2)ccc1C` [D(32), N-{3-[4′-Amino-2′-(3,4,5-trimethoxy-phenylamino)-[2,5′]bithiazolyl-4-yl]-phenyl}-3-methoxy-4-methyl-benzamide], affinity in assay [1] was put at a Ki of 3.9 nM. The IC50 was 59 nM in assay [2] (Table 1) and greater than 10 µM in assay [3].

As to `COc1cc(Nc2nc(N)c(-c3nc(-c4cccc(NC(=O)c5ccc(Br)s5)c4)cs3)s2)cc(OC)c1OC` [D(36), 5-Bromo-thiophene-2-carboxylic acid {3-[4′-amino-2′-(3,4,5-trimethoxy-phenylamino)-[2,5′]bithiazolyl-4-yl]-phenyl}-amide], in assay [1], the Ki worked out at 2 nM. Further, the IC50 is 43 nM in assay [2] (Table 1) and greater than 10 µM in assay [3].

In assay [1], `COc1cc(Nc2nc(N)c(-c3nc(-c4cccc(NC(=O)c5cccc(C)c5)c4)cs3)s2)cc(OC)c1OC` [D(38), N-{3-[4′-Amino-2′-(3,4,5-trimethoxy-phenylamino)-[2,5′]bithiazolyl-4-yl]-phenyl}-3-methyl-benzamide] returned a Ki of 0.93 nM. For the same compound, the IC50 in assay [2] (Table 1) is 40 nM; in assay [3] it was greater than 10 µM.

Turning to `CNC(=O)Nc1nc(N)c(-c2nc(-c3cccc(NC(=O)c4ccc(Cl)s4)c3)cs2)s1` [F(1), 5-Chloro-thiophene-2-carboxylic acid {3-[4′-amino-2′-(3-methyl-ureido)-[2,5′]bithiazolyl-4-yl]-phenyl}-amide], the inhibition constant Ki in assay [1] turned out to be 0.91 nM; in assay [4] (Table 1) it was 1.4 nM. In assay [2] (Table 1), this compound returned an IC50 of 29 nM.

Turning to `COc1cc(Nc2nc(N)c(-c3nc(-c4cccc(NC(=O)OC(C)(C)C)c4)no3)s2)cc(OC)c1OC` [B(2), 3-(3-tert-Butyloxycarboxy-aminophenyl)-5-[2-[(3,4,5-trimethoxyphenyl)amino]-4-amino-5-thiazolyl]-1,2,4-oxadiazole], the Ki in assay [1] was found to be 16.5 nM. Further, the IC50 in assay [2] (Table 1) is greater than 700 nM; in assay [3] it was 3.65 µM.

As to `CC(=O)Nc1nc(N)c(-c2nc(-c3cccc(NC(=O)c4ccc(Cl)s4)c3)cs2)s1` [F(2), N-[3-(2′-Acetylamino-4′-amino-[2,5′]bithiazolyl-4-yl)-phenyl]-5-chloro-thiophene-2-carboxamide], the Ki was 3.9 nM in assay [1] and 4.71 nM in assay [4] (Table 1). Also, 86 nM corresponded to half-maximal inhibition in assay [2] (Table 1) (IC50).

`COc1cc(Nc2nc(N)c(-c3nc(-c4cccc(NC(=O)c5ccc(Cl)c(C)c5)c4)cs3)s2)cc(OC)c1OC` [D(30), N-{3-[4′-Amino-2′-(3,4,5-trimethoxy-phenylamino)-[2,5′]bithiazolyl-4-yl]-phenyl}-4-chloro-3-methyl-benzamide]: the Ki in assay [1] is 2.9 nM. In addition, the results for the IC50 in assay [2] (Table 1) and in assay [3] were 48 nM and greater than 10 µM, respectively.

In the case of `Nc1nc(Nc2ccccc2)sc1-c1nc(-c2cccc(NC(=O)OCc3ccccc3)c2)cs1` [D(20), [3-(4′-Amino-2′-phenylamino-[2,5′]bithiazolyl-4-yl)-phenyl]-carbamic acid benzyl ester], in assay [1], the Ki turned out to be 3.7 nM. For the same compound, the IC50 in assay [2] (Table 1) was 990 nM; in assay [3], greater than 10 µM.

With `COc1cccc(C(=O)Nc2cc(-c3noc(-c4sc(NC(=O)N[C@H]5CC[C@H](O)CC5)nc4N)n3)c(F)cc2F)c1` [O(11), N-[5-(5-{4-Amino-2-[3-(trans-4-hydroxy-cyclohexyl)-ureido]-thiazol-5-yl}-[1,2,4]oxadiazol-3-yl)-2,4-difluoro-phenyl]-3-methoxy-benzamide], the affinity in assay [4] (setting [5]) corresponds to a Ki of 0.45 nM. The same compound yielded an IC50 in assay [2] (Table 3) of 14 nM.

In turn, `COc1cc(Nc2nc(N)c(-c3nc(-c4cc(NC(=O)OC(C)(C)C)ccc4C)no3)s2)cc(OC)c1OC` [B(6), 3-(2-methyl-5-(tert-butyloxycarboxyamino)-phenyl)-5-[2-[(3,4,5 trimethoxyphenyl)-amino]-4-amino-5-thiazolyl]-1,2,4-oxadiazole] had a Ki in assay [4] (setting [5]) of 0.61 nM. For the same compound, the IC50 in assay [2] (Table 3) was found to be 56 nM.

As a reminder, the inhibition is the relative decrease from the control value, in per cent. Read a high inhibition as a strong effect. For `COc1cc(Nc2nc(N)c(-c3nc(-c4cccc(-c5nc(C(C)C)n[nH]5)c4)no3)s2)cc(OC)c1OC` [B(38), 5-{3-[3-(5-isopropyl-2H-[1,2,4]triazol-3-yl)-phenyl]-[1,2,4]oxadiazol-5-yl}-N2-(3.4,5-trimethoxy-phenyl)-thiazole-2,4-diamine], at 0.05 µM the inhibition in assay [4] (Table 3) was 13%. The IC50 in assay [2] (Table 3) was greater than 700 nM.

`COc1cc(Nc2nc(N)c(-c3nc(-c4cc(N)c(F)cc4F)no3)s2)cc(OC)c1OC` [C(8), 5-[3-(5-Amino-2,4,-difluoro-phenyl)-[1,2,4]oxadiazol-5-yl]-N2-(3,4,5-trimethoxy-phenyl)-thiazole-2,4-diamine] registered an inhibition at 0.05 µM in assay [4] (Table 3) of 21%. For the same compound, the IC50 in assay [2] (Table 3) was greater than 700 nM.

On to `COc1cc(Nc2nc(N)c(-c3nc(-c4cccc(-c5nc(CC(C)C)n[nH]5)c4)no3)s2)cc(OC)c1OC` [B(39)], for which affinity in assay [4] (setting [5]) was put at a Ki of 6.3 nM. In addition, the concentration for half-maximal inhibition (IC50) in assay [2] (Table 3) was greater than 100 nM.

As to `COc1cc(Nc2nc(N)c(-c3nc(-c4cccc(NC(C)=O)c4)no3)s2)cc(OC)c1OC` [D(45), 3-[3-Acetamidophenyl]-5-[2-[(3,4,5-trimethoxyphenyl)amino]-4-amino-5-thiazolyl]-1,2,4-oxadiazole], the IC50 is 235 nM in assay [2] (Table 1) and 0.65 µM in assay [3].

In the case of `COc1cc(Nc2nc(N)c(-c3nc(-c4cc(NC(=O)OC(C)(C)C)c(Cl)cc4Cl)no3)s2)cc(OC)c1OC` [B(15), (5-{5-[4-Amino-2-(3,4,5-trimethoxy-phenylamino)-thiazol-5-yl]-[1,2,4]oxadiazol-3-yl}-2,4-dichloro-phenyl)-carbamic acid tert-butyl ester], the Ki in assay [4] (setting [5]) came to 1.7 nM. Moreover, in assay [2] (Table 3), the 50% inhibitory concentration (IC50) worked out at 100 nM.

For `COc1cc(Nc2nc(N)c(-c3nc(-c4cc(NC(=O)OC(C)(C)C)c(F)cc4F)no3)s2)cc(OC)c1OC` [B(13), (5-{5-[4-Amino-2-(3,4,5-trimethoxy-phenylamino)-thiazol-5-yl]-[1,2,4]oxadiazol-3-yl}-2,4-difluoro-phenyl)-carbamic acid tert-butyl ester], the Ki in assay [4] (setting [5]) stood at 1.3 nM. For the same compound, the half-maximal inhibitory concentration (IC50) in assay [2] (Table 3) was 300 nM.

Consider `COc1cc(Nc2nc(N)c(-c3nc(-c4cc(N)c(F)cc4Cl)no3)s2)cc(OC)c1OC` [C(9), 5-[3-(5-Amino-2-chloro-4-fluoro-phenyl)-[1,2,4]oxadiazol-5-yl]-N-(3,4,5-trimethoxy-phenyl)-thiazole-2,4-diamine], for which the affinity in assay [4] (setting [5]), expressed as Ki, was 8 nM. This compound also yielded an IC50 in assay [2] (Table 3) of 300 nM.

In assay [1] (Table 3, at 50 nM), `CC[C@H](CO)NC(=O)Nc1nc(N)c(-c2nc(-c3cc(NC(=O)c4cccc(OC)c4)c(F)cc3F)cs2)s1` [O(21), N-(5-{4′-Amino-2′-[3-((R)-1-hydroxymethyl-propyl)-ureido]-[2,5′]bithiazolyl-4-yl}-2,4-difluoro-phenyl)-3-methoxy-benzamide] displayed an inhibition at 0.05 µM of 61%. In assay [4] (setting [5]), the affinity, expressed as Ki, was 1.1 nM.

In assay [4] (setting [5]), `COc1cccc(C(=O)Nc2cc(-c3noc(-c4sc(NC(=O)NCc5cccnc5)nc4N)n3)c(F)cc2F)c1` [O(9), N-(5-{5-[4-Amino-2-(3-pyridin-3-ylmethyl-ureido)-thiazol-5-yl]-[1,2,4]oxadiazol-3-yl}-2,4-difluoro-phenyl)-3-methoxy-benzamide] gave a Ki of 0.42 nM. The IC50 in assay [2] (Table 3) amounted to 4.3 nM.
